Data as given in patent US20110136762A1, “FUNGICIDAL PYRIDAZINES” (E.I. Du Pont de Nemours and Company, priority 2008, published 2011).
Marks after values point to notes of the source that are not given here.

How the values were obtained:
Assay type in all cases: in vivo
Erysiphe graminis = test: Test A: wheat powdery mildew, preventive spray on wheat seedlings, visual disease rating; settings: 100 = 100% disease control, 0 = no disease control relative to controls; for pest or weed control at 200 ppm: Blumeria graminis, 192 h
From the text: General protocol for preparing test suspensions for Tests A-F: […] The resulting test suspensions were then used in Tests A-F. The test suspensions were sprayed to the point of run-off on the test plants. All results are for 200 ppm (equivalent to a rate of 500 g/ha) except where followed by “*” which indicates 40 ppm. The test suspension was sprayed to the point of run-off on wheat seedlings. The following day the seedlings were inoculated with a spore dust of Erysiphe graminis, (the causal agent of wheat powdery mildew) and incubated in a growth chamber at 20° C. for 8 days, after which time visual disease ratings were made. […] A dash (-) indicates no test results. All results are for 200 ppm except where followed by “*”, which indicates 40 ppm.

[1] = test system: Puccinia recondita f. sp. tritici; test: Test B: wheat leaf rust, preventive spray on wheat seedlings, visual disease rating; settings: 100 = 100% disease control, 0 = no disease control relative to controls; for pest or weed control at 200 ppm: 192 h
From the text: General protocol for preparing test suspensions for Tests A-F: […] The resulting test suspensions were then used in Tests A-F. The test suspensions were sprayed to the point of run-off on the test plants. All results are for 200 ppm (equivalent to a rate of 500 g/ha) except where followed by “*” which indicates 40 ppm. The test suspension was sprayed to the point of run-off on wheat seedlings. The following day the seedlings were inoculated with a spore suspension of Puccinia recondita f. sp. tritici (the causal agent of wheat leaf rust) and incubated in a saturated atmosphere at 20° C. for 24 h, and then moved to a growth chamber at 20° C. for 7 days, after which time visual disease ratings were made. […] A dash (-) indicates no test results. All results are for 200 ppm except where followed by “*”, which indicates 40 ppm.

Septoria tritici = test: Test C: wheat leaf blotch, preventive spray on wheat seedlings, visual disease rating; settings: 100 = 100% disease control, 0 = no disease control relative to controls; for pest or weed control at 200 ppm: Zymoseptoria tritici, 504 h
From the text: General protocol for preparing test suspensions for Tests A-F: […] The resulting test suspensions were then used in Tests A-F. The test suspensions were sprayed to the point of run-off on the test plants. All results are for 200 ppm (equivalent to a rate of 500 g/ha) except where followed by “*” which indicates 40 ppm. The test suspension was sprayed to the point of run-off on wheat seedlings. The following day the seedlings were inoculated with a spore suspension of Septoria tritici (the causal agent of wheat leaf blotch) and incubated in saturated atmosphere at 20° C. for 48 h, and moved to a growth chamber at 20° C. for 19 additional days, after which time visual disease ratings were made. […] A dash (-) indicates no test results. All results are for 200 ppm except where followed by “*”, which indicates 40 ppm.

Septoria nodorum = test: Test D: wheat glume blotch, preventive spray on wheat seedlings, visual disease rating; settings: 100 = 100% disease control, 0 = no disease control relative to controls; for pest or weed control at 200 ppm: Parastagonospora nodorum
From the text: General protocol for preparing test suspensions for Tests A-F: […] The resulting test suspensions were then used in Tests A-F. The test suspensions were sprayed to the point of run-off on the test plants. All results are for 200 ppm (equivalent to a rate of 500 g/ha) except where followed by “*” which indicates 40 ppm. The test suspension was sprayed to the point of run-off on wheat seedlings. The following day the seedlings were inoculated with a spore suspension of Septoria nodorum (the causal agent of wheat glume blotch) and incubated in a saturated atmosphere at 20° C. for 48 h, and then moved to a growth chamber at 20° C. for 7 days, after which time visual disease ratings were made. […] A dash (-) indicates no test results. All results are for 200 ppm except where followed by “*”, which indicates 40 ppm.

Alternaria solani = test: Test E: tomato early blight, preventive spray on tomato seedlings, visual disease rating; settings: 100 = 100% disease control, 0 = no disease control relative to controls; for pest or weed control at 200 ppm: Alternaria solani
From the text: General protocol for preparing test suspensions for Tests A-F: […] The resulting test suspensions were then used in Tests A-F. The test suspensions were sprayed to the point of run-off on the test plants. All results are for 200 ppm (equivalent to a rate of 500 g/ha) except where followed by “*” which indicates 40 ppm. The test suspension was sprayed to the point of run-off on tomato seedlings. […] A dash (-) indicates no test results. All results are for 200 ppm except where followed by “*”, which indicates 40 ppm.

Botrytis cinerea = test: Test F: tomato Botrytis, preventive spray on tomato seedlings, visual disease rating; settings: 100 = 100% disease control, 0 = no disease control relative to controls; for pest or weed control at 200 ppm: Botrytis cinerea
From the text: General protocol for preparing test suspensions for Tests A-F: […] The resulting test suspensions were then used in Tests A-F. The test suspensions were sprayed to the point of run-off on the test plants. All results are for 200 ppm (equivalent to a rate of 500 g/ha) except where followed by “*” which indicates 40 ppm. The test suspension was sprayed to the point of run-off on tomato seedlings. The following day the seedlings were inoculated with a spore suspension of Botrytis cinerea (the causal agent of tomato Botrytis) and incubated in saturated atmosphere at 20° C. for 48 h, and then moved to a growth chamber at 24° C. for 3 days, after which time visual disease ratings were made. […] A dash (-) indicates no test results. All results are for 200 ppm except where followed by “*”, which indicates 40 ppm.

COc1cc(OC)cc(-c2c(-c3ccc(F)cc3)nnc(C)c2-c2ccccc2)c1 [Compound 11]
Test A rating (disease control, wheat powdery mildew) (Erysiphe graminis; 200 ppm): 93% | Test B rating (disease control, wheat leaf rust) ([1]; 200 ppm): 68% | Test C rating (disease control, wheat leaf blotch) (Septoria tritici; 200 ppm): 70% | Test D rating (disease control, wheat glume blotch) (Septoria nodorum; 200 ppm): 0% | Test E rating (disease control, tomato early blight) (Alternaria solani; 200 ppm): 0% | Test F rating (disease control, tomato Botrytis) (Botrytis cinerea; 200 ppm): 0%

COc1cc(OC)cc(-c2c(-c3ccccc3)n[n+]([O-])c(C)c2-c2ccc(F)cc2)c1 [Compound 12, 4-(3,5-dimethoxyphenyl)-5-(4-fluorophenyl)-6-methyl-3-phenylpyridazine 1-oxide]
pest or weed control at 200 ppm (Erysiphe graminis; 200 ppm): 62% | pest or weed control at 200 ppm ([1]; 200 ppm): 100% | pest or weed control at 200 ppm (Septoria tritici; 200 ppm): 99% | pest or weed control at 200 ppm (Septoria nodorum; 200 ppm): 0% | pest or weed control at 200 ppm (Alternaria solani; 200 ppm): 94% | pest or weed control at 200 ppm (Botrytis cinerea; 200 ppm): 100%

COc1cc(OC)cc(-c2c(-c3ccccn3)nnc(C)c2-c2ccccc2)c1 [Compound 13, 4-(3,5-dimethoxyphenyl)-6-methyl-5-phenyl-3-(2-pyridinyl)pyridazine]
pest or weed control at 200 ppm (Erysiphe graminis; 200 ppm): 0% | pest or weed control at 200 ppm ([1]; 200 ppm): 41% | pest or weed control at 200 ppm (Septoria tritici; 200 ppm): 0% | pest or weed control at 200 ppm (Septoria nodorum; 200 ppm): 0% | pest or weed control at 200 ppm (Alternaria solani; 200 ppm): 0% | pest or weed control at 200 ppm (Botrytis cinerea; 200 ppm): 0%

COc1cc(OC)cc(-c2c(-c3ccccc3)nnc(CCl)c2-c2ccc(F)cc2)c1 [Compound 14, 3-(chloromethyl)-5-(3,5-dimethoxyphenyl)-4-(4-fluorophenyl)-6-phenylpyridazine]
pest or weed control at 200 ppm (Erysiphe graminis; 200 ppm): 11% | pest or weed control at 200 ppm ([1]; 200 ppm): 91% | pest or weed control at 200 ppm (Septoria tritici; 200 ppm): 77% | pest or weed control at 200 ppm (Septoria nodorum; 200 ppm): 0% | pest or weed control at 200 ppm (Alternaria solani; 200 ppm): 0% | pest or weed control at 200 ppm (Botrytis cinerea; 200 ppm): 99%

COc1cc(OC)cc(-c2c(-c3ccccc3F)nnc(C)c2-c2ccc(F)cc2F)c1 [Compound 15, 4-(2,4-difluorophenyl)-5-(3,5-dimethoxyphenyl)-6-(2-fluorophenyl)-3-methylpyridazine]
pest or weed control at 200 ppm (Erysiphe graminis; 200 ppm): 100% | pest or weed control at 200 ppm ([1]; 200 ppm): 100% | pest or weed control at 200 ppm (Septoria tritici; 200 ppm): 99% | pest or weed control at 200 ppm (Septoria nodorum; 200 ppm): 98% | pest or weed control at 200 ppm (Alternaria solani; 200 ppm): 100% | pest or weed control at 200 ppm (Botrytis cinerea; 200 ppm): 98%

COc1cc(OC)cc(-c2c(-c3ccc(F)cc3F)cnnc2-c2ccccc2F)c1 [Compound 16]
Test A rating (disease control, wheat powdery mildew) (Erysiphe graminis; 200 ppm): 0% | Test B rating (disease control, wheat leaf rust) ([1]; 200 ppm): 96% | Test C rating (disease control, wheat leaf blotch) (Septoria tritici; 200 ppm): 70% | Test D rating (disease control, wheat glume blotch) (Septoria nodorum; 200 ppm): 0% | Test E rating (disease control, tomato early blight) (Alternaria solani; 200 ppm): 0% | Test F rating (disease control, tomato Botrytis) (Botrytis cinerea; 200 ppm): 99%

COc1cc(OC)cc(-c2c(-c3ccccc3F)nnc(Cl)c2-c2ccc(F)cc2F)c1 [Compound 18, 3-chloro-4-(2,4-difluorophenyl)-5-(3,5-dimethoxyphenyl)-6-(2-fluorophenyl)pyridazine]
pest or weed control at 200 ppm (Erysiphe graminis; 200 ppm): 95% | pest or weed control at 200 ppm ([1]; 200 ppm): 100% | pest or weed control at 200 ppm (Septoria tritici; 200 ppm): 98% | pest or weed control at 200 ppm (Septoria nodorum; 200 ppm): 100% | pest or weed control at 200 ppm (Alternaria solani; 200 ppm): 100% | pest or weed control at 200 ppm (Botrytis cinerea; 200 ppm): 95%

C=C(C)c1nnc(C)c(-c2ccc(OC)cc2)c1-c1cc(OC)cc(OC)c1 [Compound 19]
Test A rating (disease control, wheat powdery mildew) (Erysiphe graminis; 200 ppm): 61% | Test B rating (disease control, wheat leaf rust) ([1]; 200 ppm): 98% | Test C rating (disease control, wheat leaf blotch) (Septoria tritici; 200 ppm): 98% | Test D rating (disease control, wheat glume blotch) (Septoria nodorum; 200 ppm): 0% | Test E rating (disease control, tomato early blight) (Alternaria solani; 200 ppm): 100% | Test F rating (disease control, tomato Botrytis) (Botrytis cinerea; 200 ppm): 98%

C=C(C)c1nnc(C)c(-c2ccc(F)cc2F)c1-c1cc(OC)cc(OC)c1 [Compound 20]
Test A rating (disease control, wheat powdery mildew) (Erysiphe graminis; 200 ppm): 96% | Test B rating (disease control, wheat leaf rust) ([1]; 200 ppm): 100% | Test C rating (disease control, wheat leaf blotch) (Septoria tritici; 200 ppm): 96% | Test D rating (disease control, wheat glume blotch) (Septoria nodorum; 200 ppm): 0% | Test E rating (disease control, tomato early blight) (Alternaria solani; 200 ppm): 100% | Test F rating (disease control, tomato Botrytis) (Botrytis cinerea; 200 ppm): 99%

C=C(C)c1nnc(C)c(-c2c(F)cccc2F)c1-c1cc(OC)cc(OC)c1 [Compound 21]
Test A rating (disease control, wheat powdery mildew) (Erysiphe graminis; 40 ppm (marked *)): 94* % | Test B rating (disease control, wheat leaf rust) ([1]; 40 ppm (marked *)): 99* % | Test C rating (disease control, wheat leaf blotch) (Septoria tritici; 40 ppm (marked *)): 98* % | Test D rating (disease control, wheat glume blotch) (Septoria nodorum; 40 ppm (marked *)): 0* % | Test E rating (disease control, tomato early blight) (Alternaria solani; 40 ppm (marked *)): 98* % | Test F rating (disease control, tomato Botrytis) (Botrytis cinerea; 40 ppm (marked *)): 98* %

COc1cc(OC)cc(-c2c(-c3ccccc3F)nnc(C)c2-c2c(F)cccc2F)c1 [Compound 22]
Test A rating (disease control, wheat powdery mildew) (Erysiphe graminis; 40 ppm (marked *)): 99* % | Test B rating (disease control, wheat leaf rust) ([1]; 40 ppm (marked *)): 100* % | Test C rating (disease control, wheat leaf blotch) (Septoria tritici; 40 ppm (marked *)): 97* % | Test D rating (disease control, wheat glume blotch) (Septoria nodorum; 40 ppm (marked *)): 84* % | Test E rating (disease control, tomato early blight) (Alternaria solani; 40 ppm (marked *)): 100* % | Test F rating (disease control, tomato Botrytis) (Botrytis cinerea; 40 ppm (marked *)): 95* %

Cc1nnc(-c2ccccc2F)c(-c2ccc(Cl)cc2)c1-c1c(F)cc(F)cc1F [Compound 23]
Test A rating (disease control, wheat powdery mildew) (Erysiphe graminis; 200 ppm): 99% | Test B rating (disease control, wheat leaf rust) ([1]; 200 ppm): 99% | Test C rating (disease control, wheat leaf blotch) (Septoria tritici; 200 ppm): 97% | Test D rating (disease control, wheat glume blotch) (Septoria nodorum; 200 ppm): 0% | Test E rating (disease control, tomato early blight) (Alternaria solani; 200 ppm): 96% | Test F rating (disease control, tomato Botrytis) (Botrytis cinerea; 200 ppm): 86%

COc1cc(OC)cc(-c2c(-c3ccccc3F)nnc(C)c2-c2c(F)cc(F)cc2F)c1 [Compound 24, 4-(3,5-dimethoxyphenyl)-3-(2-fluorophenyl)-6-methyl-5-(2,4,6-trifluorophenyl)pyridazine]
pest or weed control at 200 ppm (Erysiphe graminis; 200 ppm): 100% | pest or weed control at 200 ppm ([1]; 200 ppm): 100% | pest or weed control at 200 ppm (Septoria tritici; 200 ppm): 96% | pest or weed control at 200 ppm (Septoria nodorum; 200 ppm): 100% | pest or weed control at 200 ppm (Alternaria solani; 200 ppm): 100% | pest or weed control at 200 ppm (Botrytis cinerea; 200 ppm): 94%

Cc1nnc(-c2ccccc2F)c(-c2cccc(F)c2)c1-c1c(F)cc(F)cc1F [Compound 25, 3-(2-fluorophenyl)-4-(3-fluorophenyl)-6-methyl-5-(2,4,6-trifluorophenyl)pyridazine]
pest or weed control at 200 ppm (Erysiphe graminis; 200 ppm): 99% | pest or weed control at 200 ppm ([1]; 200 ppm): 100% | pest or weed control at 200 ppm (Septoria tritici; 200 ppm): 96% | pest or weed control at 200 ppm (Septoria nodorum; 200 ppm): 100% | pest or weed control at 200 ppm (Alternaria solani; 200 ppm): 100% | pest or weed control at 200 ppm (Botrytis cinerea; 200 ppm): 98%

COc1cc(OC)cc(-c2c(-c3ccccc3F)nnc(OC)c2-c2c(F)cc(F)cc2F)c1 [Compound 26, 4-(3,5-dimethoxyphenyl)-3-(2-fluorophenyl)-6-methoxy-5-(2,4,6-trifluorophenyl)pyridazine]
pest or weed control at 200 ppm (Erysiphe graminis; 200 ppm): 90% | pest or weed control at 200 ppm ([1]; 200 ppm): 100% | pest or weed control at 200 ppm (Septoria tritici; 200 ppm): 99% | pest or weed control at 200 ppm (Septoria nodorum; 200 ppm): 100% | pest or weed control at 200 ppm (Alternaria solani; 200 ppm): 95% | pest or weed control at 200 ppm (Botrytis cinerea; 200 ppm): 99%
